The values that follow come from BindingDB's records for doi:10.1021/acs.jmedchem.0c00870 (Tu Dortmund University, 2020).

Structures are written as SMILES. pIC50: −log10 of the molar value.

By pIC50 is commonly meant −log10 of the IC50, conventionally taken in molar units.

Test [1] in a line: Inhibiton of EGFR (unknown origin) expressed in human A431 cells assessed as reduction in EGFR induced cell viability after 96 hrs by CellTiter-Glo assay. On the technique in general: ATP-based viability assays read luminescence as a measure of living cells.
The nature of test [2]: Inhibiton of EGFR L858R/T790M mutant (unknown origin) expressed in human NCI-H1975 cells assessed as reduction in EGFR induced cell viability after 96 hrs by CellTiter-Glo assay.

For the molecule `C=CC(=O)Nc1cccc(-c2c[nH]c3ncnc(Nc4ccc(OCc5ccccn5)c(Cl)c4)c23)c1`, the negative logarithm of the IC50 (pIC50) in test [1] was 5.78; in test [2] it was 6.13.

`C=CC(=O)Nc1cccc(-c2c[nH]c3ncnc(Nc4ccc(CN5C(=O)c6ccccc6C5=O)cc4)c23)c1`: the pIC50 in test [1] was 5.80; in test [2], 5.57.

As to `C=CC(=O)Nc1cc(-c2c[nH]c3ncnc(Nc4ccc(OCc5ccccn5)c(Cl)c4)c23)ccc1OCCN(C)C`, the pIC50 was 6.06 in test [1] and 6.09 in test [2].

For `C=CC(=O)Nc1cc(-c2c[nH]c3ncnc(Nc4ccc5c(cnn5Cc5ccccc5)c4)c23)ccc1OCCO`, the pIC50 in test [1] was 5.65.
